Test results reported in ChEMBL document CHEMBL1158841, “Neoglycorandomization and chemoenzymatic glycorandomization: two complementary tools for natural product diversification” (J Nat Prod, 2005).

Key:
DU-145 = test: Cytotoxicity against human DU145 cells after 72 hrs by calcein AM assay; format: functional, cell-based; conditions: DU-145, 72 h, pooled result: one value given for 9 cell lines, strains, targets or settings
[1] = Activity of AknS in presence of AknT

Row | Compound | IC50 (DU-145) [nM] | kcat [1] [s⁻¹]
1 | C[C@H]1O[C@@H](O[C@H]2[C@@H](O)C[C@H](O[C@H]3[C@@H](O)C[C@H](O[C@H]4CC[C@@]5(C)[C@H](CC[C@@H]6[C@@H]5CC[C@]5(C)[C@@H](C7=CC(=O)OC7)CC[C@]65O)C4)O[C@@H]3C)O[C@@H]2C)C[C@H](O)[C@@H]1O [DIGITOXIN] | 440 | 
2 | CC[C@@]1(O)C[C@H](O[C@H]2C[C@H](N(C)C)[C@H](O[C@H]3C[C@H](O)[C@H](O[C@H]4CCC(=O)[C@H](C)O4)[C@H](C)O3)[C@H](C)O2)c2c(cc3c(c2O)C(=O)c2c(O)cccc2C3=O)[C@H]1C(=O)OC |  | 0.00367
